Assay results reported in article PMC9910343 (ACS chemical neuroscience, 2022).
Values joined by “and” are separate entries in the source; they are usually repeats but may differ in a detail not shown here. Identical values can stand only once.

Tests used:
[1] = Plasma and CSF pharmacokinetics after s.c. or i.v. administration; type: in vivo, rhesus monkeys; details: for Cmax of metabolite hydroxyvarenicline / AUC of metabolite hydroxyvarenicline: mean
[2] = rats; based on the unbound fraction; cited from earlier work
[3] = system: neurons expressing PSAM-GlyRs; details: systemic administration; rhesus monkeys; cited from earlier work
[4] = after uPSEM817 0.064 mg/kg i.v., CSF
[5] = after uPSEM817 0.064 mg/kg i.v., plasma
[6] = after uPSEM817 0.064 mg/kg s.c., plasma

Row | Compound | Tmax of metabolite hydroxyvarenicline [1, 4] [min] | Cmax of metabolite hydroxyvarenicline [1, 4] [ng/mL] | Tmax of metabolite hydroxyvarenicline [1, 5] [min] | AUC of metabolite hydroxyvarenicline [1, 5] [ng·h/mL] | Cmax of metabolite hydroxyvarenicline [1, 5] | Tmax of metabolite hydroxyvarenicline [1, 6] [min] | AUC of metabolite hydroxyvarenicline [1, 6] [ng·h/mL] | Cmax of metabolite hydroxyvarenicline [1, 6] | detection of hydroxyvarenicline as metabolite in CSF ([1]; after uPSEM817 0.064 mg/kg, CSF) | CSF:plasma ratio [2] | neuronal activity in neurons expressing PSAM-GlyRs [3] | detection of varenicline as metabolite in plasma or CSF ([1]; after uPSEM817 0.064 mg/kg s.c. or i.v.)
1 | O=c1cnc2cc3c(cc2[nH]1)C1CNCC3C1 (stereo not drawn) [hydroxyvarenicline] | 90 | 0.05 | 180 | 1.161 | 0.87 ng/mL and 0.874 ng/mL | 60 | 0.556 | 0.55 ng/mL and 0.553 ng/mL | only detected in a single CSF sample for one animal | – | – | –
2 | c1cnc2cc3c(cc2n1)[C@@H]1CNC[C@H]3C1 [varenicline] | – | – | – | – | – | – | – | – | – | 1.25 | reduces neuronal activity | not detected
